In ChEMBL document CHEMBL1156967 (Bioorg Med Chem Lett, 2010):

Legend:
[1] = target: Mitogen-activated protein kinase 11 (Homo sapiens, UniProt Q15759); assay: Inhibition of p38beta assessed as gamma-[33P]ATP incorporation by scintillation counting
Rattus norvegicus [2] = assay: Antiinflammatory activity in Lewis rat plasma assessed as reduction in LPS-stimulated TNFalpha accumulation at 5 mg/kg, ig administered 4 hrs before LPS challenge measured after […] by ELISA; format: functional; conditions: po, route intragastric
Rattus norvegicus [3] = assay: Antiinflammatory activity in Lewis rat assessed as reduction in LPS-stimulated TNFalpha accumulation at 1 mg/kg, ig administered 4 hrs before LPS challenge measured after […] by ELISA; format: functional; conditions: po, route intragastric
Blood = assay: Antiinflammatory activity against LPS-induced TNFalpha production in human whole blood treated 1 hr before LPS challenge measured after 4 hrs by ELISA; format: functional, tissue-based
[4] = Intrinsic clearance in human liver microsomes; format: ADME, Microsome
[5] = Half life in human liver microsomes; format: ADME, Microsome
hERG (KCNH2) = hERG (KCNH2) (Homo sapiens, UniProt Q12809); assay: Displacement of dofetilide from human ERG at 10 uM; conditions: probe dofetilide
Sequence of hERG (KCNH2) (Q12809 whole entry): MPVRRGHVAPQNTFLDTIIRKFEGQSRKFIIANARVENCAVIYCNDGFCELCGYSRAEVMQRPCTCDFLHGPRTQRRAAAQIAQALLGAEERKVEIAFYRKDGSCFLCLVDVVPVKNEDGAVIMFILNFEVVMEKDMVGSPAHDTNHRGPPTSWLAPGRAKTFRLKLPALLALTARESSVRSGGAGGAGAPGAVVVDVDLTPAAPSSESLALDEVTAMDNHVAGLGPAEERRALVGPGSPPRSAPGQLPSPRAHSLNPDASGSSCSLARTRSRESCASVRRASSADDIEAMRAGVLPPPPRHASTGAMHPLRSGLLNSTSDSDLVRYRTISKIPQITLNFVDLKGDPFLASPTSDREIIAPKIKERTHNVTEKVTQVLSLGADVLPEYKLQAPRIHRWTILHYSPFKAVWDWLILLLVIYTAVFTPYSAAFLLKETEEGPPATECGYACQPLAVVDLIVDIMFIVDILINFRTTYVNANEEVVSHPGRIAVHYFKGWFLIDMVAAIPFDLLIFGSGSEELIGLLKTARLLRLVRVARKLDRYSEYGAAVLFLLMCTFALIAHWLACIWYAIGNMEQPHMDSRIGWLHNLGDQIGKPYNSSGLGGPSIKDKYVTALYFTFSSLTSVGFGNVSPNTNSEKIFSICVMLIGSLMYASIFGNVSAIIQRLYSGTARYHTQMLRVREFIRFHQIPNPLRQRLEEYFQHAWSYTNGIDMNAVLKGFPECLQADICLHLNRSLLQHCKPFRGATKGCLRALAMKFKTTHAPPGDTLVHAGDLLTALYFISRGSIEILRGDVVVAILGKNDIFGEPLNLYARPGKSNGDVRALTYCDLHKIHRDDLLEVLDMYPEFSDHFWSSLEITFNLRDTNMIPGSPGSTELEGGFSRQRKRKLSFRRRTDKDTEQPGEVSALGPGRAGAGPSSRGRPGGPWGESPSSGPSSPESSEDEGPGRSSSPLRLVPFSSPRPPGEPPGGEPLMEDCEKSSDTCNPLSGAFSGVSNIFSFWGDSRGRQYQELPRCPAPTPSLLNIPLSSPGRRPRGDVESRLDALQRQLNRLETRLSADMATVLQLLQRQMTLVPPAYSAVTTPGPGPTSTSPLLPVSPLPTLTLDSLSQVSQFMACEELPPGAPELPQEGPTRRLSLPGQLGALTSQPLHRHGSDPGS

Mus musculus = assay: Antiarthritic activity against collagen-induced arthritis in DBA/1 mouse chronic CIA model assessed as incidence of arthritis at 30 mg/kg, po after 21 days; format: functional
[6] = target: Mitogen-activated protein kinase 14 (Homo sapiens, UniProt Q16539); assay: Inhibition of p38alpha assessed as gamma-[33P]ATP incorporation by scintillation counting
Sequence of Mitogen-activated protein kinase 14 (Q16539 whole entry): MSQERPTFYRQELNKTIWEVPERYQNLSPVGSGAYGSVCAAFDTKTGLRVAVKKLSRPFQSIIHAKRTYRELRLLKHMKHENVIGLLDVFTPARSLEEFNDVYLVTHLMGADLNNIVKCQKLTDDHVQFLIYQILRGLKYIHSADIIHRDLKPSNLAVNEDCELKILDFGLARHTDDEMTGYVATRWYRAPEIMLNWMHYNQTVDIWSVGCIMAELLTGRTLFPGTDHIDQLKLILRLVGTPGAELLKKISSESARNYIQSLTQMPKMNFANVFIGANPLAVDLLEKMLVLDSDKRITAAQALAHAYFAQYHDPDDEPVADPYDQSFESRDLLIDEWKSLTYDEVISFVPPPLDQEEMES

Rattus norvegicus [7] = assay: Antiinflammatory activity in Lewis rat plasma assessed as reduction in LPS-stimulated TNFalpha accumulation at 20 mg/kg, ig administered 4 hrs before LPS challenge measured after […] by ELISA; format: functional; conditions: po, route intragastric
[8] = Clearance in rat at 5 mg/kg, iv; format: ADME, organism-based; parameters: dose 5 mg/kg, route intravenous; conditions: in vivo
[9] = Volume of distribution in rat at 5 mg/kg, iv; format: ADME, organism-based; parameters: dose 5 mg/kg, route intravenous; conditions: in vivo
[10] = Half life in rat at 5 mg/kg, iv; format: ADME, organism-based; parameters: dose 5 mg/kg, route intravenous; conditions: in vivo
[11] = Bioavailability in rat at 5 mg/kg, iv; format: ADME, organism-based; conditions: in vivo
[12] = Clearance in dog at 2.5 mg/kg, iv; format: ADME, organism-based, Canis lupus familiaris; parameters: dose 2.5 mg/kg, route intravenous; conditions: in vivo
[13] = Volume of distribution in dog at 2.5 mg/kg, iv; format: ADME, organism-based, Canis lupus familiaris; parameters: dose 2.5 mg/kg, route intravenous; conditions: in vivo
[14] = Half life in dog at 2.5 mg/kg, iv; format: ADME, organism-based, Canis lupus familiaris; parameters: dose 2.5 mg/kg, route intravenous; conditions: in vivo
[15] = Bioavailability in dog at 2.5 mg/kg, iv; format: ADME, organism-based, Canis lupus familiaris; conditions: in vivo
[16] = Selectivity ratio of IC50 for p38 beta to IC50 for p38alpha

Sequence of Mitogen-activated protein kinase 11 (Q15759 whole entry): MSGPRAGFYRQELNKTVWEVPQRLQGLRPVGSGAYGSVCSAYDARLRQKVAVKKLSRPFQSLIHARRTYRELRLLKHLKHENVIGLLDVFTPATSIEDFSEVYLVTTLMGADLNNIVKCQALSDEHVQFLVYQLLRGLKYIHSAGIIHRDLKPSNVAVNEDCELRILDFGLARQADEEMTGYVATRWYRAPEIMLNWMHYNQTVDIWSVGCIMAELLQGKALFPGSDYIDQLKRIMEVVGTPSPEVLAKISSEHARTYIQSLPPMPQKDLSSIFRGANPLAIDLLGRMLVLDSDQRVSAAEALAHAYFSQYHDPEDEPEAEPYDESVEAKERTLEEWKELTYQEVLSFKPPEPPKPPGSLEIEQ

| SMILES | IC50 [1] | inhibition in vivo at 5 mg/kg (Rattus norvegicus [2]) | inhibition in vivo at 1 mg/kg (Rattus norvegicus [3]) | CLint scaled [4] | half-life [5] | Activity (Mus musculus) | IC50 [6] | further results |
| --- | --- | --- | --- | --- | --- | --- | --- | --- |
| COCC(=O)N1CCC(c2[nH]nc(-c3ccc(Cl)cc3)c2-c2ccncc2)CC1 | 3450 nM | 90% | – | – | – | – | – | – |
| CN1CCC(c2[nH]nc(-c3ccc(Cl)cc3)c2-c2ccncn2)CC1 | 2320 nM | 63% | 36% | 31.5 mL/min/kg | 31.2 min | 20% | – | IC50 (Blood): 800 nM; inhibition at 10 µM (hERG (KCNH2)): 51% |
| OCCN1CCC(c2[nH]nc(-c3ccc(Cl)cc3)c2-c2ccncn2)CC1 | 2540 nM | 88% | 80% | 21.4 mL/min/kg | 47.6 min | 61% | 35 nM | IC50 (Blood): 490 nM; inhibition at 10 µM (hERG (KCNH2)): 46% |
| CC(C)(CO)N1CCC(c2[nH]nc(-c3ccc(Cl)cc3)c2-c2ccncn2)CC1 | 2780 nM | 0% | – | – | – | – | 184 nM | – |
| Cc1ccc(-c2n[nH]c(C3CCN(C)CC3)c2-c2ccncc2)cc1 | 3070 nM | – | – | – | – | – | 99.6 nM | inhibition in vivo at 20 mg/kg (Rattus norvegicus [7]): 44% |
| CN(C)CC(=O)N1CCC(c2[nH]nc(-c3ccc(Cl)cc3)c2-c2ccncc2)CC1 | 6720 nM | 85% | – | – | – | – | 80 nM | – |
| COCCCN1CCC(c2[nH]nc(-c3ccc(Cl)cc3)c2-c2ccncc2)CC1 | 6550 nM | – | – | – | – | – | 106 nM | – |
| CC(=O)N1CCC(c2[nH]nc(-c3ccc(Cl)cc3)c2-c2ccncc2)CC1 | 3130 nM | 66% | – | 22.5 mL/min/kg | 43.3 min | 50% | 68 nM | – |
| COCC(=O)N1CCC(c2[nH]nc(-c3ccc(Cl)cc3)c2-c2ccncn2)CC1 | 3250 nM | 88% | 71% | – | – | – | – | – |
| O=C(CO)N1CCC(c2[nH]nc(-c3ccc(Cl)cc3)c2-c2ccncc2)CC1 | 1790 nM | 85% | – | 15.8 mL/min/kg | 62 min | 60% | – | inhibition at 10 µM (hERG (KCNH2)): 24% |
| CC(C)(O)CN1CCC(c2[nH]nc(-c3ccc(Cl)cc3)c2-c2ccncn2)CC1 | 9780 nM | 34% | 3% | – | – | – | 88 nM | IC50 (Blood): 1000 nM |
| O=C(CO)N1CCC(c2n[nH]c(-c3ccc(Cl)cc3)c2-c2ccncn2)CC1 [SD-0006] | 3450 nM | 87% | 81% | < 8 mL/min/kg | > 120 min | 16% | – | inhibition at 10 µM (hERG (KCNH2)): 16%; clearance [8]: 4.96 mL/min/kg; Vd [9]: 1.74 L/kg; half-life [10]: 243 min; bioavailability [11]: > 80%; clearance [12]: 2.92 mL/min/kg; Vd [13]: 1.07 L/kg; half-life [14]: 269 min; bioavailability [15]: > 80% |
| Fc1ccc(-c2n[nH]c(C3CCNCC3)c2-c2ccncc2)cc1 | 510 nM | 2% | – | – | – | – | 25.3 nM | – |
| CS(=O)(=O)N1CCC(c2[nH]nc(-c3ccc(Cl)cc3)c2-c2ccncn2)CC1 | 4100 nM | 89% | 26% | 18.1 mL/min/kg | 53.9 min | 44% | 198 nM | IC50 (Blood): > 5000 nM |
| CS(=O)(=O)N1CCC(c2[nH]nc(-c3ccc(Cl)cc3)c2-c2ccncc2)CC1 | 3530 nM | 75% | – | – | – | – | 70 nM | – |
| CN1CCCC(c2[nH]nc(-c3ccc(F)cc3)c2-c2ccncc2)C1 (stereo unspecified) | 2520 nM | 63% | – | – | – | – | 90 nM | Ratio IC50 [16]: 28 |
| CN1CCC(c2[nH]nc(-c3cccc(Cl)c3)c2-c2ccncc2)CC1 | 1050 nM | 27% | – | – | – | – | – | – |

| SMILES | IC50 [1] | inhibition in vivo at 5 mg/kg (Rattus norvegicus [2]) | inhibition in vivo at 1 mg/kg (Rattus norvegicus [3]) | CLint scaled [4] | half-life [5] | Activity (Mus musculus) | IC50 [6] | further results |
| --- | --- | --- | --- | --- | --- | --- | --- | --- |
| CN1CCC(c2[nH]nc(-c3ccc(C(F)(F)F)cc3)c2-c2ccncc2)CC1 | 3770 nM | 22% | – | – | – | – | 40.5 nM | – |
| OCCN1CCC(c2[nH]nc(-c3ccc(Cl)cc3)c2-c2ccncc2)CC1 | 3390 nM | 88% | – | 32 mL/min/kg | 30.5 min | 70% | 41 nM | inhibition at 10 µM (hERG (KCNH2)): 61% |
| CN1CCC(c2[nH]nc(-c3ccc(Cl)cc3)c2-c2ccncc2)CC1 | 2680 nM | 71% | – | – | – | – | 31.6 nM | Ratio IC50 [16]: 84 |
| Cc1cccc(-c2n[nH]c(C3CCN(C)CC3)c2-c2ccncc2)c1 | 2350 nM | – | – | – | – | – | 67.3 nM | inhibition in vivo at 20 mg/kg (Rattus norvegicus [7]): 81% |
| CN1CCC(c2[nH]nc(-c3cccc(C(F)(F)F)c3)c2-c2ccncc2)CC1 | 164 nM | 6% | – | – | – | – | 26.5 nM | – |
| Clc1ccc(-c2n[nH]c(C3CCN(C4CCOCC4)CC3)c2-c2ccncn2)cc1 | 9500 nM | 46% | – | – | – | – | 205 nM | IC50 (Blood): > 5000 nM |
| CN(C)C(=O)N1CCC(c2[nH]nc(-c3ccc(Cl)cc3)c2-c2ccncn2)CC1 | 3480 nM | 88% | 53% | – | – | – | 88 nM | – |
| CN1CCC(c2[nH]nc(-c3ccc(F)cc3)c2-c2ccncc2)CC1 | 1960 nM | 77% | – | – | – | – | 54.7 nM | Ratio IC50 [16]: 35 |
| CC(=O)N1CCC(c2[nH]nc(-c3ccc(Cl)cc3)c2-c2ccncn2)CC1 | 3710 nM | 90% | 72% | 9.5 mL/min/kg | 102 min | 50% | 152 nM | – |
| O=C(O)CN1CCC(c2[nH]nc(-c3ccc(Cl)cc3)c2-c2ccncc2)CC1 | 4340 nM | 20% | – | – | – | – | 126 nM | – |
| Clc1ccc(-c2n[nH]c(C3CCN(Cc4ccncc4)CC3)c2-c2ccncn2)cc1 | 3290 nM | 27% | – | – | – | – | 47 nM | – |
| O[C@H]1CCC[C@@H]1N1CCC(c2[nH]nc(-c3ccc(Cl)cc3)c2-c2ccncn2)CC1 | 3380 nM | 70% | 40% | – | – | – | 19 nM | – |
| COCCN1CCC(c2[nH]nc(-c3ccc(Cl)cc3)c2-c2ccncc2)CC1 | 6720 nM | 84% | – | 47.7 mL/min/kg | 21.5 min | 22% | 70 nM | inhibition at 10 µM (hERG (KCNH2)): 74% |
| Fc1ccc(-c2n[nH]c(C3CCCNC3)c2-c2ccncc2)cc1 (stereo unspecified) | 404 nM | – | – | – | – | – | 48.3 nM | Ratio IC50 [16]: 6 |
| NS(=O)(=O)N1CCC(c2[nH]nc(-c3ccc(Cl)cc3)c2-c2ccncc2)CC1 | 1650 nM | 68% | – | – | – | – | 14 nM | – |
| Clc1ccc(-c2n[nH]c(C3CCN(C4CCOC4)CC3)c2-c2ccncn2)cc1 (stereo unspecified) | 7410 nM | 70% | 80% | 16.3 mL/min/kg | 61.3 min | 50% | 31 nM | IC50 (Blood): 520 nM; inhibition at 10 µM (hERG (KCNH2)): 35% |
